# Test results published in the supplement of paper PMC10307832.
# Experiments:
# Assay in all cases: relative viability (nuclei count vs DMSO), 5 days (fraction); higher = more cells survive
# [1] = compound: CN1CCC(CC1)OC2=CC(=C(C=C2)NC3=NC=C4C(=N3)N(C(=O)N4C)C5CCCC5)OC [AZ3146] + CC(=O)c1c(C)c2cnc(Nc3ccc(N4CCNCC4)cn3)nc2n(C2CCCC2)c1=O [Palbociclib] (partner 0.5 µM)
# Summary of the method: (§1)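 Lung cancer cell lines in 1536-well plates got either a single drug or a fixed anchor-drug dose together with five library-drug doses (not always all listed) in √10 steps, by pin tool, on the day after seeding. Nuclei were counted after 5 days, and relative viability is the treated-to-vehicle ratio of nuclei counts. Values are medians of duplicate plates.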
# [2] = compound: CCOC(=O)CCNc1cc(N2CCc3ccccc3CC2)nc(-c2ccccn2)n1 [GSK-J4] + CC(=O)c1c(C)c2cnc(Nc3ccc(N4CCNCC4)cn3)nc2n(C2CCCC2)c1=O [Palbociclib] (partner 0.5 µM)
# Summary of the method: as §1
# [3] = compound: CN1CCC(CC1)OC2=CC(=C(C=C2)NC3=NC=C4C(=N3)N(C(=O)N4C)C5CCCC5)OC [AZ3146] + O=C(c1cc(Cc2n[nH]c(=O)c3ccccc23)ccc1F)N1CCN(C(=O)C2CC2)CC1 [Olaparib] (partner 8 µM)
# Summary of the method: as §1
# [4] = compound: CN1CCC(CC1)OC2=CC(=C(C=C2)NC3=NC=C4C(=N3)N(C(=O)N4C)C5CCCC5)OC [AZ3146] + CS(=O)(=O)N1CCN(Cc2cc3nc(-c4cccc5[nH]ncc45)nc(N4CCOCC4)c3s2)CC1 [Pictilisib] (partner 1 µM)
# Summary of the method: as §1
Cell Line,relative viability ([1]; first compound 0.08 µM),relative viability ([1]; first compound 0.253 µM),relative viability ([1]; first compound 0.8 µM),relative viability ([1]; first compound 2.53 µM),relative viability ([1]; first compound 8 µM),relative viability ([2]; first compound 0.5 µM),relative viability ([2]; first compound 1.581 µM),relative viability ([2]; first compound 5 µM),relative viability ([2]; first compound 15.81 µM),relative viability ([2]; first compound 50 µM),relative viability ([3]; first compound 0.08 µM),relative viability ([3]; first compound 0.253 µM),relative viability ([3]; first compound 0.8 µM),relative viability ([3]; first compound 2.53 µM),relative viability ([3]; first compound 8 µM),relative viability ([4]; first compound 0.08 µM),relative viability ([4]; first compound 0.253 µM),relative viability ([4]; first compound 0.8 µM),relative viability ([4]; first compound 2.53 µM),relative viability ([4]; first compound 8 µM)
NCI-H23,0.503,0.515,0.494,0.513,0.473,0.483,0.398,0.48,0.375,0.42,0.291,0.289,0.389,0.356,0.338,0.453,0.568,0.483,0.494,0.451
NCI-H322M,0.475,0.465,0.461,0.518,0.471,0.493,0.446,0.497,0.435,0.538,0.839,0.839,0.644,0.813,0.729,0.585,0.478,0.439,0.491,0.512
NCI-H358,0.141,0.139,0.123,0.135,0.101,0.139,,0.154,0.104,0.138,0.555,0.578,0.592,0.583,0.442,0.355,0.39,0.394,0.398,0.326
NCI-H441,0.216,0.199,0.211,0.265,0.204,0.235,0.202,0.241,0.221,0.161,0.519,0.645,0.603,0.678,0.523,0.46,0.532,0.467,0.537,0.503
NCI-H460,0.088,0.139,0.139,0.161,0.0649,0.175,,0.167,0.137,0.149,0.242,0.45,0.416,0.449,0.352,0.293,0.323,0.297,0.416,0.461
NCI-H520,0.237,0.216,0.22,0.237,0.195,0.231,0.113,0.223,0.167,0.163,0.306,0.352,0.396,0.418,0.289,0.255,0.287,0.303,0.284,0.31
NCI-H647,0.356,0.364,0.357,0.346,0.367,0.404,0.348,0.358,0.411,0.471,0.412,0.474,0.592,0.603,0.237,0.485,0.423,0.258,0.366,0.476
NCI-H650,0.303,0.343,0.234,0.363,0.27,0.309,0.283,,0.255,0.239,0.271,0.361,0.385,0.46,0.413,0.661,0.837,0.634,0.905,1.01
NCI-H661,0.443,0.429,0.42,0.429,0.4,0.41,0.38,0.388,0.409,0.361,0.806,0.768,0.736,0.791,0.678,0.489,0.417,0.34,0.463,0.446
NCI-H727,0.663,0.624,0.675,0.627,0.659,0.648,0.683,0.696,0.593,0.528,0.632,0.632,0.701,0.853,0.775,0.324,0.431,0.328,0.605,0.316
NCI-H838,0.219,0.202,0.205,0.239,0.161,0.222,0.204,0.158,0.194,0.226,0.771,0.769,0.766,0.724,0.253,0.557,0.467,0.39,0.387,0.266
NCI-H1355,0.396,0.402,0.405,0.406,0.388,0.372,0.375,0.415,0.35,0.356,0.72,0.761,0.759,0.83,0.807,0.334,0.452,0.525,0.467,0.512
NCI-H1395,0.619,0.603,,0.619,0.647,0.546,0.518,0.576,0.556,0.61,0.485,0.532,,0.568,0.552,0.536,0.628,0.539,0.623,0.726
NCI-H1437,0.311,0.29,0.303,0.314,0.27,0.293,0.278,0.332,0.38,0.205,0.589,0.611,0.611,0.635,0.532,0.432,0.376,0.45,0.393,0.461
NCI-H1650,0.301,0.343,0.366,0.352,0.283,0.34,0.287,0.353,0.371,0.283,0.857,0.722,0.752,0.736,0.621,0.52,0.671,0.53,0.535,0.493
NCI-H1651,0.486,0.532,0.53,0.526,0.497,0.502,0.47,0.504,0.504,0.509,0.191,0.185,0.2,0.214,0.202,0.556,0.668,0.576,0.475,0.489

Cell Line,relative viability ([1]; first compound 0.08 µM),relative viability ([1]; first compound 0.253 µM),relative viability ([1]; first compound 0.8 µM),relative viability ([1]; first compound 2.53 µM),relative viability ([1]; first compound 8 µM),relative viability ([2]; first compound 0.5 µM),relative viability ([2]; first compound 1.581 µM),relative viability ([2]; first compound 5 µM),relative viability ([2]; first compound 15.81 µM),relative viability ([2]; first compound 50 µM),relative viability ([3]; first compound 0.08 µM),relative viability ([3]; first compound 0.253 µM),relative viability ([3]; first compound 0.8 µM),relative viability ([3]; first compound 2.53 µM),relative viability ([3]; first compound 8 µM),relative viability ([4]; first compound 0.08 µM),relative viability ([4]; first compound 0.253 µM),relative viability ([4]; first compound 0.8 µM),relative viability ([4]; first compound 2.53 µM),relative viability ([4]; first compound 8 µM)
NCI-H1666,0.586,0.659,0.672,0.663,0.656,0.685,0.561,0.59,0.627,0.708,0.719,0.79,0.741,0.75,0.741,0.307,0.507,0.485,0.582,0.648
NCI-H1734,0.308,0.376,0.387,0.3,0.317,0.332,0.318,0.346,0.335,0.281,0.58,0.61,0.632,0.607,0.612,0.501,0.522,0.418,0.474,0.499
NCI-H1755,0.414,0.427,0.434,0.479,0.431,0.43,0.336,0.456,0.447,0.408,0.867,0.892,0.89,0.945,0.923,0.421,0.433,0.359,0.441,0.442
NCI-H1792,0.507,0.664,,0.679,0.669,0.622,,0.773,0.569,0.668,0.351,0.522,0.384,0.42,0.434,0.211,0.238,0.32,0.339,0.285
NCI-H1793,0.269,0.292,0.311,0.374,0.321,0.298,0.264,0.28,0.204,0.162,0.864,0.859,0.667,0.892,0.544,0.298,0.376,0.278,0.469,0.261
NCI-H1915,0.431,0.571,0.564,0.573,0.491,0.533,0.514,,0.481,0.514,0.24,0.283,0.271,0.277,0.312,0.748,0.911,1.11,1,1.07
NCI-H1944,0.302,0.322,0.298,0.39,0.326,0.378,0.334,,0.274,0.342,0.36,0.391,0.408,0.475,0.473,,0.34,0.323,0.376,0.364
NCI-H1975,0.534,0.548,0.562,0.552,0.309,0.543,0.498,0.613,0.524,0.634,0.748,0.774,0.813,0.793,0.418,0.266,0.343,0.305,0.303,0.304
NCI-H1993,0.721,0.71,0.579,0.639,0.762,0.588,0.623,0.606,0.542,0.481,1,1.12,1.12,1.04,1.06,0.806,0.797,0.788,0.839,0.762
NCI-H2009,0.256,0.227,0.243,0.171,0.204,0.242,0.166,0.223,0.216,0.202,0.642,0.662,0.742,0.649,0.604,0.891,0.962,0.886,0.917,0.605
NCI-H2023,0.347,0.343,0.364,0.311,0.255,0.317,0.371,0.385,0.41,0.435,0.464,0.451,0.494,0.436,0.152,0.241,0.285,0.19,0.265,0.202
NCI-H2085,0.489,0.472,0.475,0.497,0.432,0.451,0.434,0.386,0.495,0.494,0.792,0.749,0.749,0.764,0.711,0.486,0.433,0.506,0.547,0.438
NCI-H2087,0.181,0.235,0.244,0.267,0.206,0.256,0.243,0.282,0.24,0.227,0.563,0.654,0.649,0.637,0.419,1.14,0.926,0.669,0.968,0.847
NCI-H2126,0.336,0.33,0.375,0.333,0.339,0.374,0.397,0.356,0.333,0.358,0.908,0.898,0.897,0.967,0.862,0.41,0.483,0.465,0.517,0.496
NCI-H2170,0.341,0.361,0.394,0.398,0.377,0.372,0.393,0.392,0.311,0.378,0.578,0.63,0.542,0.614,0.623,0.297,0.315,0.327,0.297,0.243
NCI-H2228,0.671,0.878,0.728,0.622,0.59,0.672,0.765,0.817,0.784,0.722,0.873,0.632,0.672,0.503,0.544,0.412,0.306,0.349,0.282,0.314
